We go through 28 compounds from US20110190336A1, “AZABENZIMIDAZOLONES” (CARA THERAPEUTICS, INC., priority 2008, published 2011).

Molecules are shown by their SMILES. Where only a bound is given, the exact number is not on record here.

The target of the test is T1, human DP2 receptor (Homo sapiens, UniProt Q9Y5Y4).
T1 construct: expressed in transfected cells; host or cells: CHO-K1 FLP-In (Invitrogen, catalog no. R758-07), stably transfected
T1 sequence (Q9Y5Y4 1-395): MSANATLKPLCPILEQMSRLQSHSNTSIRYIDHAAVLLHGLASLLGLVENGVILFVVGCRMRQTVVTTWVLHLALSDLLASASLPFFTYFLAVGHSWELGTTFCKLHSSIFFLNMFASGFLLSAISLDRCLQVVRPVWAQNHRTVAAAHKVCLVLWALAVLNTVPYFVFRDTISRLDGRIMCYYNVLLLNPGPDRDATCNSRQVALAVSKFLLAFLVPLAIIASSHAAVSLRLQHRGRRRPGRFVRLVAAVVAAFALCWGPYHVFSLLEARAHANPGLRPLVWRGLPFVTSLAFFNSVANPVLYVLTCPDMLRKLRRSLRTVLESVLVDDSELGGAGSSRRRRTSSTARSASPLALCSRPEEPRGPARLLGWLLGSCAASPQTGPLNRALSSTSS
Nature of the test: Prostaglandin D2 binding inhibition assay (scintillation proximity assay, 3H PGD2, membranes of transfected CHO cells). The settings on record: SPA, 5.5 nM 3H PGD2, CHO-K1 FLP-In human DP2 membranes; upper limit determinable 30 μM; read-out: IC50 ranges for inhibition of PGD2 binding to human DP2. Summed up: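 Membranes (5 μg) from CHO-K1 cells stably expressing human DP2 were mixed with WGA SPA beads and 5.5 nM 3H PGD2 in Tris buffer with 10 mM MgCl2, 100 mM NaCl, 0.1% BSA, plus compound. After 60 min at room temperature, CPM were read; IC50 from two-parameter nonlinear regression.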
For orientation: SPA uses beads or plates that emit light when radiolabelled molecules are held near them.
In the case of `Cc1ccc(S(=O)(=O)NC2CCC(n3c(=O)n(CC(=O)O)c4cccnc43)CC2)c(F)c1` (stereo not shown) [Compound 107, 2-(3-(4-(2-fluoro-4-methylphenylsulfonamido)cyclohexyl)-2-oxo-2,3-dihydro-1H-imidazo[4,5-b]pyridin-1-yl)acetic acid], the IC50 lay within 1 to 10 µM.
`CS(=O)(=O)c1ccccc1S(=O)(=O)N1CCC[C@H](n2c(=O)n(CC(=O)O)c3cccnc32)C1` [Compound 108, (S)-2-(3-(1-(2-(methylsulfonyl)phenylsulfonyl)piperidin-3-yl)-2-oxo-2,3-dihydro-1H-imidazo[4,5-b]pyridin-1-yl)acetic acid]: the IC50 was in the range of 1 to 10 µM.
For `O=C(O)Cn1c(=O)n([C@H]2CCCN(S(=O)(=O)c3ccc(Cl)cc3Cl)C2)c2ncccc21` [Compound 109, (S)-2-(3-(1-(2,4-dichlorophenylsulfonyl)piperidin-3-yl)-2-oxo-2,3-dihydro-1H-imidazo[4,5-b]pyridin-1-yl)acetic acid], the half-inhibitory concentration (IC50) was in the range of 1 to 10 µM.
As for `Cc1ccc(S(=O)(=O)N2CCC[C@H](n3c(=O)n(CC(=O)O)c4cccnc43)C2)c(F)c1` [Compound 110, (S)-2-(3-(1-(2-fluoro-4-methylphenylsulfonyl)piperidin-3-yl)-2-oxo-2,3-dihydro-1H-imidazo[4,5-b]pyridin-1-yl)acetic acid], the figure is 1 to 10 µM.
For `CS(=O)(=O)c1ccccc1S(=O)(=O)N1CCC(n2c(=O)n(CC(=O)O)c3cccnc32)C1` (stereo not shown) [Compound 111, 2-(3-(1-(2-(methylsulfonyl)phenylsulfonyl)pyrrolidin-3-yl)-2-oxo-2,3-dihydro-1H-imidazo[4,5-b]pyridin-1-yl)acetic acid] the value was less than 1 µM.
As for `O=C(O)Cn1c(=O)n(C2CCN(S(=O)(=O)c3ccc(Cl)cc3Cl)C2)c2ncccc21` (stereo not shown) [Compound 112, 2-(3-(1-(2,4-dichlorophenylsulfonyl)pyrrolidin-3-yl)-2-oxo-2,3-dihydro-1H-imidazo[4,5-b]pyridin-1-yl)acetic acid], the figure is 1 to 10 µM; as for `CS(=O)(=O)c1ccccc1S(=O)(=O)N1CCC[C@@H](n2c(=O)n(CC(=O)O)c3cccnc32)C1` [Compound 113, (R)-2-(3-(1-(2-(methylsulfonyl)phenylsulfonyl)piperidin-3-yl)-2-oxo-2,3-dihydro-1H-imidazo[4,5-b]pyridin-1-yl)acetic acid], less than 1 µM.
In the case of `O=C(O)Cn1c(=O)n([C@@H]2CCCN(S(=O)(=O)c3ccc(F)cc3Cl)C2)c2ncccc21` [Compound 114, (R)-2-(3-(1-(2-chloro-4-fluorophenylsulfonyl)piperidin-3-yl)-2-oxo-2,3-dihydro-1H-imidazo[4,5-b]pyridin-1-yl)acetic acid], the IC50 is less than 1 µM.
`O=C(O)Cn1c(=O)n([C@@H]2CCCN(S(=O)(=O)c3ccc(Cl)cc3Cl)C2)c2ncccc21` [Compound 115, (R)-2-(3-(1-(2,4-dichlorophenylsulfonyl)piperidin-3-yl)-2-oxo-2,3-dihydro-1H-imidazo[4,5-b]pyridin-1-yl)acetic acid]: the IC50 was less than 1 µM.
For `Cc1ccc(S(=O)(=O)N2CCC[C@@H](n3c(=O)n(CC(=O)O)c4cccnc43)C2)c(F)c1` [Compound 116, (R)-2-(3-(1-(2-fluoro-4-methylphenylsulfonyl)piperidin-3-yl)-2-oxo-2,3-dihydro-1H-imidazo[4,5-b]pyridin-1-yl)acetic acid] the value was less than 1 µM.
In the case of `Cc1ccnc2c1n(CC(=O)O)c(=O)n2C1CCN(S(=O)(=O)c2ccccc2S(C)(=O)=O)CC1` [Compound 117, 2-(7-methyl-3-(1-(2-(methylsulfonyl)phenylsulfonyl)piperidin-4-yl)-2-oxo-2,3-dihydro-1H-imidazo[4,5-b]pyridin-1-yl)acetic acid], the IC50 is greater than 30 µM.
For `Cc1ccc(S(=O)(=O)N2CCC(n3c(=O)n(CC(=O)O)c4c(C)ccnc43)CC2)c(F)c1` [Compound 118, 2-(3-(1-(2-fluoro-4-methylphenylsulfonyl)piperidin-4-yl)-7-methyl-2-oxo-2,3-dihydro-1H-imidazo[4,5-b]pyridin-1-yl)acetic acid] the value was greater than 30 µM; for `Cc1cc(F)ccc1S(=O)(=O)N1CCC(n2c(=O)n(CC(=O)O)c3c(C)ccnc32)CC1` [Compound 119, 2-(3-(1-(4-fluoro-2-methylphenylsulfonyl)piperidin-4-yl)-7-methyl-2-oxo-2,3-dihydro-1H-imidazo[4,5-b]pyridin-1-yl)acetic acid], greater than 30 µM; for `Cc1ccnc2c1n(CC(=O)O)c(=O)n2C1CCN(S(=O)(=O)c2ccc(F)cc2Cl)CC1` [Compound 120, 2-(3-(1-(2-chloro-4-fluorophenylsulfonyl)piperidin-4-yl)-7-methyl-2-oxo-2,3-dihydro-1H-imidazo[4,5-b]pyridin-1-yl)acetic acid], greater than 30 µM.
On to `Cc1ccnc2c1n(CC(=O)O)c(=O)n2C1CCN(S(=O)(=O)c2ccccc2Cl)CC1` [Compound 121, 2-(3-(1-(2-chlorophenylsulfonyl)piperidin-4-yl)-7-methyl-2-oxo-2,3-dihydro-1H-imidazo[4,5-b]pyridin-1-yl)acetic acid], for which the 50% inhibitory concentration (IC50) was greater than 30 µM.
As for `Cc1ccnc2c1n(CC(=O)O)c(=O)n2C1CCN(S(=O)(=O)c2ccc(Cl)cc2Cl)CC1` [Compound 122, 2-(3-(1-(2,4-dichlorophenylsulfonyl)piperidin-4-yl)-7-methyl-2-oxo-2,3-dihydro-1H-imidazo[4,5-b]pyridin-1-yl)acetic acid], the figure is greater than 30 µM; as for `Cc1cnc2c(c1)n(CC(=O)O)c(=O)n2C1CCN(S(=O)(=O)c2ccccc2S(C)(=O)=O)CC1` [Compound 123, 2-(6-methyl-3-(1-(2-(methylsulfonyl)phenylsulfonyl)piperidin-4-yl)-2-oxo-2,3-dihydro-1H-imidazo[4,5-b]pyridin-1-yl)acetic acid], greater than 30 µM; as for `Cc1ccc(S(=O)(=O)N2CCC(n3c(=O)n(CC(=O)O)c4cc(C)cnc43)CC2)c(F)c1` [Compound 124, 2-(3-(1-(2-fluoro-4-methylphenylsulfonyl)piperidin-4-yl)-6-methyl-2-oxo-2,3-dihydro-1H-imidazo[4,5-b]pyridin-1-yl)acetic acid], 1 to 10 µM.
For `Cc1cnc2c(c1)n(CC(=O)O)c(=O)n2C1CCN(S(=O)(=O)c2ccc(F)cc2C)CC1` [Compound 125, 2-(3-(1-(4-fluoro-2-methylphenylsulfonyl)piperidin-4-yl)-6-methyl-2-oxo-2,3-dihydro-1H-imidazo[4,5-b]pyridin-1-yl)acetic acid] the value was 10 to 30 µM; for `Cc1cnc2c(c1)n(CC(=O)O)c(=O)n2C1CCN(S(=O)(=O)c2ccc(F)cc2Cl)CC1` [Compound 126, 2-(3-(1-(2-chloro-4-fluorophenylsulfonyl)piperidin-4-yl)-6-methyl-2-oxo-2,3-dihydro-1H-imidazo[4,5-b]pyridin-1-yl)acetic acid], 10 to 30 µM; for `Cc1cnc2c(c1)n(CC(=O)O)c(=O)n2C1CCN(S(=O)(=O)c2ccccc2Cl)CC1` [Compound 127, 2-(3-(1-(2-chlorophenylsulfonyl)piperidin-4-yl)-6-methyl-2-oxo-2,3-dihydro-1H-imidazo[4,5-b]pyridin-1-yl)acetic acid], 1 to 10 µM.
With `O=C(O)Cn1c(=O)n(C2CCN(S(=O)(=O)c3ccc(F)cc3Cl)CC2)c2cccnc21` [Compound 132, 2-(1-(1-(2-chloro-4-fluorophenylsulfonyl)piperidin-4-yl)-2-oxo-1H-imidazo[4,5-b]pyridin-3(2H)-yl)acetic acid], the IC50 was greater than 30 µM.
For `O=C(O)Cn1c(=O)n(C2CCN(S(=O)(=O)c3ccccc3Cl)CC2)c2cccnc21` [Compound 133, 2-(1-(1-(2-chlorophenylsulfonyl)piperidin-4-yl)-2-oxo-1H-imidazo[4,5-b]pyridin-3(2H)-yl)acetic acid] the value was greater than 30 µM.
For `O=C(O)Cn1c(=O)n(C2CCN(S(=O)(=O)c3ccc(Cl)cc3Cl)CC2)c2cccnc21` [Compound 134, 2-(1-(1-(2,4-dichlorophenylsulfonyl)piperidin-4-yl)-2-oxo-1H-imidazo[4,5-b]pyridin-3(2H)-yl)acetic acid] the value was greater than 30 µM; for `CS(=O)(=O)c1ccccc1S(=O)(=O)N1CCC(n2c(=O)n(CC(=O)O)c3ncccc32)CC1` [Compound 135, 2-(1-(1-(2-(methylsulfonyl)phenyl-sulfonyl)piperidin-4-yl)-2-oxo-1H-imidazo[4,5-b]pyridin-3(2H)-yl)acetic acid], greater than 30 µM; for `O=C(O)Cn1c(=O)n(C2CCN(S(=O)(=O)c3ccc(F)cc3Cl)CC2)c2ccncc21` [Compound 140, 2-(1-(1-(2-chloro-4-fluorophenylsulfonyl)piperidin-4-yl)-2-oxo-1H-imidazo[4,5-c]pyridin-3(2H)-yl)acetic acid], greater than 30 µM.
For `O=C(O)Cn1c(=O)n(C2CCN(S(=O)(=O)c3ccccc3Cl)CC2)c2ccncc21` [Compound 141, 2-(1-(1-(2-chlorophenylsulfonyl)piperidin-4-yl)-2-oxo-1H-imidazo[4,5-c]pyridin-3(2H)-yl)acetic acid] the value was greater than 30 µM; for `O=C(O)Cn1c(=O)n(C2CCN(S(=O)(=O)c3ccc(Cl)cc3Cl)CC2)c2ccncc21` [Compound 142, 2-(1-(1-(2,4-dichlorophenylsulfonyl)piperidin-4-yl)-2-oxo-1H-imidazo[4,5-c]pyridin-3(2H)-yl)acetic acid], greater than 30 µM.

One may read the IC50 as the midpoint of a concentration-inhibition curve.
